# From patent US11897851B2, “Heterocyclic GLP-1 agonists” (Gasherbrum Bio, Inc., priority 2021, dated 2024)
# Target: T1, GLP-1 Receptor (Homo sapiens, UniProt P43220)
# T1 construct: host or cells: HEK293/GLP1R/CRE-LUC (HEK293/CRE-Luc stably expressing the GLP-1 receptor)
# Test: GLP-1R agonist cAMP stimulation assay (HEK293/GLP1R/CRE-LUC cells, Cisbio cAMP dynamic 2 kit);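 also: compounds tested in half-log serial dilution, cAMP detected with cAMP-d2 and anti-cAMP cryptate antibody reagents after 1 h at room temperature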
# Format: cell-based
# Details: HEK293/CRE-Luc cell line stably expressing the GLP-1 Receptor; 1000 cells/well; 30 min at 37° C.; 0.5 mM IBMX, 0.1% BSA; read-out: GLP1R cAMP Stimulation DR: EC50
# T1 sequence (P43220 24-463, species assumed): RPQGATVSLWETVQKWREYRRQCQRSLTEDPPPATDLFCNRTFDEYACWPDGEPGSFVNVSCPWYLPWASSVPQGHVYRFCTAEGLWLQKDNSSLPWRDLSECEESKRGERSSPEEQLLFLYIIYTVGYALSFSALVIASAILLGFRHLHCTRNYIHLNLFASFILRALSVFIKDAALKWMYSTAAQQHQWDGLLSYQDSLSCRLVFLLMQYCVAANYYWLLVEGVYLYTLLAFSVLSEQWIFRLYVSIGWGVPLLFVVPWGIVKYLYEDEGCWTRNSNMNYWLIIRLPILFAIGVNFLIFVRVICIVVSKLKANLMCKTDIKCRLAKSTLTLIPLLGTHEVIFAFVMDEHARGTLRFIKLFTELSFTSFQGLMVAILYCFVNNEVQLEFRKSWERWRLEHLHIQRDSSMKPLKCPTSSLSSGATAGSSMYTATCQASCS
row,EC50,SMILES
1,15 nM,"C[C@@]1(c2ccc(Cl)cc2F)Oc2cccc(C3CCN(Cc4ncc(/C=C/C(=O)O)n4C[C@@H]4CCO4)CC3)c2O1 [Compound 135b, (E)-3-(2-((4-((R)-2-(4-chloro-2-fluorophenyl)-2-methylbenzo[d][1,3]dioxol-4-yl)piperidin-1-yl)methyl)-1-(((S)-oxetan-2-yl)methyl)-1H-imidazol-5-yl)acrylic acid]"
2,48 nM,"C/C(=C\c1cnc(CN2CCC(c3cccc4c3O[C@H](c3ccc(Cl)cc3)O4)CC2)n1C[C@@H]1CCO1)C(=O)O [Compound 133b, (E)-3-(2-((4-((R)-2-(4-chlorophenyl)benzo[d][1,3]dioxol-4-yl)piperidin-1-yl)methyl)-1-(((S)-oxetan-2-yl)methyl)-1H-imidazol-5-yl)-2-methylacrylic acid]"
3,0.66 nM,"CCn1cncc1Cn1c(/C=C(\C)C(=O)O)cnc1CN1CCC(c2cccc3c2O[C@](C)(c2ccc(Cl)cc2F)O3)CC1 [Compound 138b, (R,E)-3-(2-((4-(2-(4-chloro-2-fluorophenyl)-2-methylbenzo[d][1,3]dioxol-4-yl)piperidin-1-yl)methyl)-1-((1-ethyl-1H-imidazol-5-yl)methyl)-1H-imidazol-5-yl)-2-methylacrylic acid]"
4,26 nM,"O=C(O)/C=C/c1nnc(CN2CCC(c3cccc(OCc4ccc(Cl)cc4F)n3)CC2)n1CC1CCOCC1 [Compound 233, (E)-3-[5-[[4-[6-[(4-chloro-2-fluoro-phenyl)methoxy]-2-pyridyl]-1-piperidyl]methyl]-4-(tetrahydropyran-4-ylmethyl)-1,2,4-triazol-3-yl]prop-2-enoic acid]"
5,5 nM,"COCCc1cc(-c2nnn[nH]2)cnc1CN1CCC(c2cccc3c2OC(C)(c2ccc(Cl)cc2F)O3)CC1 (centres unmarked) [Compound 256, 2-({4-[2-(4-chloro-2-fluorophenyl)-2-methyl-2H-1,3-benzodioxol-4-yl]piperidin-1-yl}methyl)-3-(2-methoxyethyl)-5-(1H-1,2,3,4-tetrazol-5-yl)pyridine]"
6,48.9 nM,"O=C(O)/C=C/c1cnc(CN2CCC(c3cccc(OCc4ccc(Cl)cc4F)n3)CC2)c(CC2CCCO2)c1 (centres unmarked) [Compound 128, (E)-3-(6-((4-(6-((4-chloro-2-fluorobenzyl)oxy)pyridin-2-yl)piperidin-1-yl)methyl)-5-((tetrahydrofuran-2-yl)methyl)pyridin-3-yl)acrylic acid]"
7,2.01 nM,"Cn1c(/C=C/C(=O)O)nnc1CN1CCC(c2cccc(OCc3ccc(Cl)cc3F)n2)CC1 [Compound 112, (E)-3-(5-((4-(6-((4-chloro-2-fluorobenzyl)oxy)pyridin-2-yl)piperidin-1-yl)methyl)-4-methyl-4H-1,2,4-triazol-3-yl)acrylic acid]"
8,0.045 nM,"Cc1ncccc1Cn1c(/C=C/C(=O)O)cnc1CN1CCC(c2cccc3c2OC(C)(c2ccc(Cl)cc2F)O3)CC1 (centres unmarked) [Compound 147, (E)-3-(2-((4-(2-(4-chloro-2-fluorophenyl)-2-methylbenzo[d][1,3]dioxol-4-yl)piperidin-1-yl)methyl)-1-((2-methylpyridin-3-yl)methyl)-1H-imidazol-5-yl)acrylic acid]"
9,> 1000 nM,"O=C(O)/C=C/c1cnc(CN2CCC(c3cccc4c3OC[C@@H](c3ccc(Cl)cc3)O4)CC2)n1Cc1ccno1 [Compound 187a, (R,E)-3-(2-((4-(2-(4-chlorophenyl)-2,3-dihydrobenzo [b][1,4]dioxin-5-yl)piperidin-1-yl)methyl)-1-(isoxazol-5-ylmethyl)-1H-imidazol-5-yl)acrylic acid]"
10,14 nM,"Cc1cc(-c2nnc(C(F)F)[nH]2)cnc1CN1CCC(c2cccc3c2OC(C)(c2ccc(Cl)cc2F)O3)CC1 (centres unmarked) [Compound 257, 2-({4-[2-(4-chloro-2-fluorophenyl)-2-methyl-2H-1,3-benzodioxol-4-yl]piperidin-1-yl}methyl)-5-[5-(difluoromethyl)-4H-1,2,4-triazol-3-yl]-3-methylpyridine]"
11,0.45 nM,"CC1(c2ccc(Cl)cc2F)Oc2cccc(C3CCN(Cc4ncc(CCC(=O)O)n4C[C@@H]4CCO4)CC3)c2O1 (stereo partly drawn) [Compound 239, 3-(2-((4-(2-(4-chloro-2-fluorophenyl)-2-methylbenzo[d][1,3]dioxol-4-yl)piperidin-1-yl)methyl)-1-(((S)-oxetan-2-yl)methyl)-1H-imidazol-5-yl)propanoic acid]"
12,0.364 nM,"COCCn1c(/C=C/C(=O)O)cnc1CN1CCC(c2cccc(OCc3ccc(Cl)cc3F)n2)CC1 [Compound 106, (E)-3-(2-((4-(6-((4-Chloro-2-fluorobenzyl)oxy)pyridin-2-yl)piperidin-1-yl)methyl)-1-(2-methoxyethyl)-1H-imidazol-5-yl)acrylic acid]"
13,17 nM,"C/C(=C\c1cnc(CN2CCC(c3cccc4c3O[C@](C)(c3ccc(Cl)cc3)O4)CC2)n1C[C@@H]1CCO1)C(=O)O [Compound 134b, (E)-3-(2-((4-((R)-2-(4-chlorophenyl)-2-methylbenzo[d][1,3]dioxol-4-yl)piperidin-1-yl)methyl)-1-(((S)-oxetan-2-yl)methyl)-1H-imidazol-5-yl)-2-methylacrylic acid]"
14,10 nM,"CC1(C)C[C@@H](Cn2c(/C=C/C(=O)O)cnc2CN2CCC(c3cccc4c3OC(C)(c3ccc(Cl)cc3F)O4)CC2)CO1 (single isomer, unassigned) [Compound 171a]"
15,0.0014 nM,"C[C@]1(c2ccc(Cl)cc2F)Oc2cccc(C3CCN(Cc4ncc(/C=C/C(=O)O)n4C[C@H]4CCS4(=O)=O)CC3)c2O1 (single isomer, unassigned) [Compound 173b]"
16,0.054 nM,"CC1(c2ccc(Cl)cc2F)Oc2cccc(C3CCN(Cc4ncc(/C=C/C(=O)O)n4Cc4cccc(Cl)c4)CC3)c2O1 (centres unmarked) [Compound 150, (E)-3-(2-((4-(2-(4-chloro-2-fluorophenyl)-2-methylbenzo[d][1,3]dioxol-4-yl)piperidin-1-yl)methyl)-1-(3-chlorobenzyl)-1H-imidazol-5-yl)acrylic acid]"
17,0.058 nM,"CCc1nocc1Cn1c(/C=C/C(=O)O)cnc1CN1CCC(c2cccc3c2OC(C)(c2ccc(Cl)cc2F)O3)CC1 (centres unmarked) [Compound 203, (E)-3-(2-((4-(2-(4-chloro-2-fluorophenyl)-2-methylbenzo[d][1,3]dioxol-4-yl)piperidin-1-yl)methyl)-1-((3-ethylisoxazol-4-yl)methyl)-1H-imidazol-5-yl)acrylic acid]"
18,8.3 nM,"Cc1cc(-c2nnc(C(F)(F)F)[nH]2)cnc1CN1CCC(c2cccc3c2OC(C)(c2ccc(Cl)cc2F)O3)CC1 (centres unmarked) [Compound 255, 2-({4-[2-(4-chloro-2-fluorophenyl)-2-methyl-2H-1,3-benzodioxol-4-yl]piperidin-1-yl}methyl)-3-methyl-5-[5-(trifluoromethyl)-4H-1,2,4-triazol-3-yl]pyridine]"
19,9.4 nM,"O=C(O)C1CC1c1cnc(CN2CCC(c3cccc(OCc4ccc(Cl)cc4F)n3)CC2)n1C[C@@H]1CCO1 (stereo partly drawn) [Compound 114a, 2-(2-((4-(6-((4-chloro-2-fluorobenzyl)oxy)pyridin-2-yl)piperidin-1-yl)methyl)-1-(((S)-oxetan-2-yl)methyl)-1H-imidazol-5-yl)cyclopropane-1-carboxylic acid]"
20,34.9 nM,COCCn1c(C2CC2C(=O)O)cnc1CN1CCC(c2cccc(OCc3ccc(Cl)cc3F)n2)CC1 (centres unmarked) [Compound 113]
